# Organism: Rattus norvegicus
# Test: Open TG-GATES - Regimen: Single
# Format: toxicity, organism-based, Sprague-Dawley
# Design: regimen Single, gender Male, age 6 weeks
# Conditions: in vivo, po, route gavage; for gamma-GTP / ALP / ALT / AST / BUN / CRE / Ca / Cl / DBIL / GLC / IP / LDH / Na / PL / RALB / TBIL / TC / TG / TP: tissue Plasma; for APTT / Bas / Eos / Fbg / Hb / Ht / Lym / MCH / MCHC / MCV / Mono / Neu / PT / Plat / RBC / Ret / WBC: tissue Blood; for KIDNEY_L / KIDNEY_R / KIDNEY_TOTAL: tissue Kidney; for LIVER: tissue Liver
compound,measurement,setting,value
CC(=O)N1CCN(c2ccc(OCC3COC(Cn4ccnc4)(c4ccc(Cl)cc4Cl)O3)cc2)CC1 (stereo not given) [KETOCONAZOLE],gamma-GTP,"0 mg/kg, 24 h, dose level Control",1.2 IU/L
same,TERMINAL_BW,"10 mg/kg, 3 h, dose level Low",205.2 g
same,APTT,"10 mg/kg, 3 h, dose level Low",20.8 s
same,Bas,"10 mg/kg, 3 h, dose level Low",0%
same,Eos,"10 mg/kg, 3 h, dose level Low",0.8%
same,Fbg,"10 mg/kg, 3 h, dose level Low",286.4 mg/dL
same,Hb,"10 mg/kg, 3 h, dose level Low",12.9 g/dL
same,Ht,"10 mg/kg, 3 h, dose level Low",38.9%
same,Lym,"10 mg/kg, 3 h, dose level Low",79.2%
same,MCH,"10 mg/kg, 3 h, dose level Low",21.8 pg
same,MCHC,"10 mg/kg, 3 h, dose level Low",33.1%
same,MCV,"10 mg/kg, 3 h, dose level Low",66.1 fL
same,Mono,"10 mg/kg, 3 h, dose level Low",2%
same,Neu,"10 mg/kg, 3 h, dose level Low",17.2%
same,PT,"10 mg/kg, 3 h, dose level Low",16.9 s
same,Plat,"10 mg/kg, 3 h, dose level Low",122.3 x10_4/uL
same,RBC,"10 mg/kg, 3 h, dose level Low",590.2 x10_4/ul
same,Ret,"10 mg/kg, 3 h, dose level Low",8.5%
same,WBC,"10 mg/kg, 3 h, dose level Low",81.1 x10_2/uL
same,KIDNEY_L,"10 mg/kg, 3 h, dose level Low",1 g
same,KIDNEY_R,"10 mg/kg, 3 h, dose level Low",1 g
same,KIDNEY_TOTAL,"10 mg/kg, 3 h, dose level Low",2 g
same,LIVER,"10 mg/kg, 3 h, dose level Low",9.7 g
same,ALP,"10 mg/kg, 3 h, dose level Low",1809.4 IU/L
same,ALT,"10 mg/kg, 3 h, dose level Low",44.2 IU/L
same,AST,"10 mg/kg, 3 h, dose level Low",74.2 IU/L
same,BUN,"10 mg/kg, 3 h, dose level Low",12.6 mg/dL
same,CRE,"10 mg/kg, 3 h, dose level Low",0.2 mg/dL
same,Ca,"10 mg/kg, 3 h, dose level Low",10.8 mg/dL
same,Cl,"10 mg/kg, 3 h, dose level Low",105.4 meq/L
same,DBIL,"10 mg/kg, 3 h, dose level Low",0 mg/dL
same,GLC,"10 mg/kg, 3 h, dose level Low",183.6 mg/dL
same,IP,"10 mg/kg, 3 h, dose level Low",7.7 mg/dL
same,LDH,"10 mg/kg, 3 h, dose level Low",214.6 IU/L
same,Na,"10 mg/kg, 3 h, dose level Low",140.8 meq/L
same,PL,"10 mg/kg, 3 h, dose level Low",138.4 mg/dL
same,RALB,"10 mg/kg, 3 h, dose level Low",2.9 g/dL
same,TBIL,"10 mg/kg, 3 h, dose level Low",0.014 mg/dL
same,TC,"10 mg/kg, 3 h, dose level Low",76.6 mg/dL
same,TG,"10 mg/kg, 3 h, dose level Low",69.8 mg/dL
same,TP,"10 mg/kg, 3 h, dose level Low",5.3 g/dL
same,gamma-GTP,"10 mg/kg, 3 h, dose level Low",1.2 IU/L
same,TERMINAL_BW,"10 mg/kg, 6 h, dose level Low",202.4 g
same,APTT,"10 mg/kg, 6 h, dose level Low",20.6 s
same,Bas,"10 mg/kg, 6 h, dose level Low",0%
same,Eos,"10 mg/kg, 6 h, dose level Low",0.6%
same,Fbg,"10 mg/kg, 6 h, dose level Low",294 mg/dL
same,Hb,"10 mg/kg, 6 h, dose level Low",13.2 g/dL
same,Ht,"10 mg/kg, 6 h, dose level Low",39.7%
same,Lym,"10 mg/kg, 6 h, dose level Low",78.8%
same,MCH,"10 mg/kg, 6 h, dose level Low",21 pg
same,MCHC,"10 mg/kg, 6 h, dose level Low",33.2%
same,MCV,"10 mg/kg, 6 h, dose level Low",63.2 fL
same,Mono,"10 mg/kg, 6 h, dose level Low",1.4%
same,Neu,"10 mg/kg, 6 h, dose level Low",18.2%
same,PT,"10 mg/kg, 6 h, dose level Low",16.5 s
same,Plat,"10 mg/kg, 6 h, dose level Low",134.3 x10_4/uL
same,RBC,"10 mg/kg, 6 h, dose level Low",628.6 x10_4/ul
same,Ret,"10 mg/kg, 6 h, dose level Low",8.4%
same,WBC,"10 mg/kg, 6 h, dose level Low",66.2 x10_2/uL
same,KIDNEY_L,"10 mg/kg, 6 h, dose level Low",0.9 g
same,KIDNEY_R,"10 mg/kg, 6 h, dose level Low",0.9 g
same,KIDNEY_TOTAL,"10 mg/kg, 6 h, dose level Low",1.8 g
same,LIVER,"10 mg/kg, 6 h, dose level Low",8.6 g
same,ALP,"10 mg/kg, 6 h, dose level Low",1453.2 IU/L
same,AST,"10 mg/kg, 6 h, dose level Low",72.2 IU/L
same,BUN,"10 mg/kg, 6 h, dose level Low",11 mg/dL
same,CRE,"10 mg/kg, 6 h, dose level Low",0.2 mg/dL
same,Ca,"10 mg/kg, 6 h, dose level Low",11 mg/dL
same,Cl,"10 mg/kg, 6 h, dose level Low",105.8 meq/L
same,DBIL,"10 mg/kg, 6 h, dose level Low",0.004 mg/dL
same,GLC,"10 mg/kg, 6 h, dose level Low",172.8 mg/dL
same,IP,"10 mg/kg, 6 h, dose level Low",9.2 mg/dL
same,LDH,"10 mg/kg, 6 h, dose level Low",238.6 IU/L
same,Na,"10 mg/kg, 6 h, dose level Low",142.2 meq/L
same,PL,"10 mg/kg, 6 h, dose level Low",146.6 mg/dL
same,RALB,"10 mg/kg, 6 h, dose level Low",3.1 g/dL
same,TBIL,"10 mg/kg, 6 h, dose level Low",0.028 mg/dL
same,TC,"10 mg/kg, 6 h, dose level Low",81.4 mg/dL
same,TG,"10 mg/kg, 6 h, dose level Low",57 mg/dL
same,TP,"10 mg/kg, 6 h, dose level Low",5.5 g/dL
same,gamma-GTP,"10 mg/kg, 6 h, dose level Low",1 IU/L
same,TERMINAL_BW,"10 mg/kg, 9 h, dose level Low",202 g
same,APTT,"10 mg/kg, 9 h, dose level Low",21.2 s
same,Bas,"10 mg/kg, 9 h, dose level Low",0%
same,Eos,"10 mg/kg, 9 h, dose level Low",0.6%
same,Fbg,"10 mg/kg, 9 h, dose level Low",303 mg/dL
same,Hb,"10 mg/kg, 9 h, dose level Low",12.8 g/dL
same,Ht,"10 mg/kg, 9 h, dose level Low",38.6%
same,Lym,"10 mg/kg, 9 h, dose level Low",79.8%
same,MCH,"10 mg/kg, 9 h, dose level Low",20.9 pg
same,MCHC,"10 mg/kg, 9 h, dose level Low",33.3%
same,MCV,"10 mg/kg, 9 h, dose level Low",62.8 fL
same,Mono,"10 mg/kg, 9 h, dose level Low",2%
same,Neu,"10 mg/kg, 9 h, dose level Low",17%
same,PT,"10 mg/kg, 9 h, dose level Low",16.2 s
same,Plat,"10 mg/kg, 9 h, dose level Low",120.8 x10_4/uL
same,RBC,"10 mg/kg, 9 h, dose level Low",614.6 x10_4/ul
same,Ret,"10 mg/kg, 9 h, dose level Low",8.5%
same,WBC,"10 mg/kg, 9 h, dose level Low",64.8 x10_2/uL
same,KIDNEY_L,"10 mg/kg, 9 h, dose level Low",1 g
same,KIDNEY_R,"10 mg/kg, 9 h, dose level Low",1 g
same,KIDNEY_TOTAL,"10 mg/kg, 9 h, dose level Low",1.9 g
same,LIVER,"10 mg/kg, 9 h, dose level Low",8.9 g
same,ALP,"10 mg/kg, 9 h, dose level Low",1290.2 IU/L
same,ALT,"10 mg/kg, 9 h, dose level Low",33 IU/L
same,AST,"10 mg/kg, 9 h, dose level Low",63.8 IU/L
same,BUN,"10 mg/kg, 9 h, dose level Low",11.2 mg/dL
same,CRE,"10 mg/kg, 9 h, dose level Low",0.1 mg/dL
same,Ca,"10 mg/kg, 9 h, dose level Low",10.6 mg/dL
same,Cl,"10 mg/kg, 9 h, dose level Low",104.8 meq/L
same,DBIL,"10 mg/kg, 9 h, dose level Low",0 mg/dL
same,GLC,"10 mg/kg, 9 h, dose level Low",182.4 mg/dL
same,IP,"10 mg/kg, 9 h, dose level Low",9.8 mg/dL
same,LDH,"10 mg/kg, 9 h, dose level Low",211.4 IU/L
same,Na,"10 mg/kg, 9 h, dose level Low",140.6 meq/L
same,PL,"10 mg/kg, 9 h, dose level Low",137.8 mg/dL
same,RALB,"10 mg/kg, 9 h, dose level Low",3.1 g/dL
same,TBIL,"10 mg/kg, 9 h, dose level Low",0.018 mg/dL
same,TC,"10 mg/kg, 9 h, dose level Low",80.2 mg/dL
same,TG,"10 mg/kg, 9 h, dose level Low",52.8 mg/dL
same,TP,"10 mg/kg, 9 h, dose level Low",5.6 g/dL
same,gamma-GTP,"10 mg/kg, 9 h, dose level Low",1.2 IU/L
same,TERMINAL_BW,"10 mg/kg, 24 h, dose level Low",212.3 g
same,APTT,"10 mg/kg, 24 h, dose level Low",20.9 s
same,Bas,"10 mg/kg, 24 h, dose level Low",0%
same,Eos,"10 mg/kg, 24 h, dose level Low",1%
same,Fbg,"10 mg/kg, 24 h, dose level Low",300 mg/dL
same,Hb,"10 mg/kg, 24 h, dose level Low",13 g/dL
same,Ht,"10 mg/kg, 24 h, dose level Low",38.5%
same,Lym,"10 mg/kg, 24 h, dose level Low",81%
same,MCH,"10 mg/kg, 24 h, dose level Low",21.3 pg
same,MCV,"10 mg/kg, 24 h, dose level Low",63.4 fL
same,Mono,"10 mg/kg, 24 h, dose level Low",1.8%
same,Neu,"10 mg/kg, 24 h, dose level Low",15.6%
same,PT,"10 mg/kg, 24 h, dose level Low",16.5 s
same,Plat,"10 mg/kg, 24 h, dose level Low",129.6 x10_4/uL
same,RBC,"10 mg/kg, 24 h, dose level Low",608 x10_4/ul
same,Ret,"10 mg/kg, 24 h, dose level Low",7.8%
same,WBC,"10 mg/kg, 24 h, dose level Low",74 x10_2/uL
same,KIDNEY_L,"10 mg/kg, 24 h, dose level Low",0.9 g
same,KIDNEY_R,"10 mg/kg, 24 h, dose level Low",0.9 g
same,KIDNEY_TOTAL,"10 mg/kg, 24 h, dose level Low",1.9 g
same,LIVER,"10 mg/kg, 24 h, dose level Low",10 g
same,ALP,"10 mg/kg, 24 h, dose level Low",1553.2 IU/L
same,ALT,"10 mg/kg, 24 h, dose level Low",44.2 IU/L
same,AST,"10 mg/kg, 24 h, dose level Low",71 IU/L
same,BUN,"10 mg/kg, 24 h, dose level Low",16 mg/dL
same,CRE,"10 mg/kg, 24 h, dose level Low",0.2 mg/dL
same,Ca,"10 mg/kg, 24 h, dose level Low",10.7 mg/dL
same,Cl,"10 mg/kg, 24 h, dose level Low",107.2 meq/L
same,DBIL,"10 mg/kg, 24 h, dose level Low",0 mg/dL
same,GLC,"10 mg/kg, 24 h, dose level Low",176.6 mg/dL
same,IP,"10 mg/kg, 24 h, dose level Low",7.1 mg/dL
same,LDH,"10 mg/kg, 24 h, dose level Low",209 IU/L
same,Na,"10 mg/kg, 24 h, dose level Low",141.6 meq/L
same,PL,"10 mg/kg, 24 h, dose level Low",140 mg/dL
same,RALB,"10 mg/kg, 24 h, dose level Low",3.1 g/dL
same,TBIL,"10 mg/kg, 24 h, dose level Low",0.006 mg/dL
same,TC,"10 mg/kg, 24 h, dose level Low",74 mg/dL
